Legend:
[1] = tested on: metabolism of retinoic acid in human breast cancer cells; experiment: Inhibition of retinoic acid (RA) metabolism (Example C.1); format: cell-based; details: MCF-7 human breast cancer cells, 3H-RA as substrate, concentration needed to reduce the amount of metabolites to 50% of the control
Summary of the method: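 Test compound (in 1% DMSO) added at several concentrations to MCF-7 cell suspensions fed ³H-RA, after RA induction of metabolism one day earlier. Scintillation counting of the separated polar metabolite fraction; IC50 = concentration giving 50% of control metabolite level.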

Ovariectomized rats = experiment: Vaginal keratinization test on ovariectomized rats (Example C.2); format: in vivo; details: estradiol undecylate induced keratinization, per os once daily on days 1-3, active dose = 50% of rats show complete suppression
Summary of the method: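 Value is the lowest oral dose (mg/kg) at which half of tested rats show complete suppression of estradiol undecylate-induced vaginal keratinization by histology. Ovariectomized rats received 100 μg/100 g estradiol undecylate s.c., then compound or PEG 200 vehicle p.o. daily for three days; sacrifice one day later.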

Compound | IC50 [1] [nM] | LAD (lowest active dose) (Ovariectomized rats) [mg/kg] | IC50 ([1]; MCF7) [nM] | minimal effective dose (Ovariectomized rats; Rattus norvegicus, po, read-out: LAD (lowest active dose)) [mg/kg]
COc1cccc(CC(=O)Nc2ccc(C(C(C)C)n3ccnc3)cc2)c1 (racemic) [Compound 665] | 5.91 | 2.50 | – | –
Cc1ccc(CC(=O)Nc2ccc(C(C(C)C)n3ccnc3)cc2)cc1 (racemic) [Compound 666] | 14.5 | 2.50 | – | –
CC(C)C(c1ccc(NC(=O)Cc2cccc(O)c2)cc1)n1ccnc1 (racemic) [Compound 667] | 1.57 | 5.00 | – | –
C/C(=C\c1ccccc1)C(=O)Nc1ccc(C(c2cccnc2)C(C)C)cc1 (racemic) [Compound 679] | > 1000 | >20.00 | – | –
C/C(=C\c1ccccc1)C(=O)Nc1ccc(C(c2ccncc2)C(C)C)cc1 (racemic) [Compound 681] | > 1000 | >20.00 | – | –
CC(C)C(c1ccc(NC(=O)Cc2ccc(Cl)cc2)cc1)c1cccnc1 (racemic) [Compound 686] | 43.1 | >10.00 | – | –
CC(C)C(c1ccc(NC(=O)Nc2cccc(F)c2)cc1)c1cccnc1 (racemic) [Compound 690] | > 100 | >10.00 | – | –
CC(C)C(c1ccncc1)c1ccc(NC(=O)Nc2cccc(F)c2)cc1 (racemic) [Compound 692] | 38 | >10.00 | – | –
CNC(=S)Nc1ccc(C(C(C)C)n2ccnc2)cc1 (racemic) [Compound 696] | 8.07 | >10.00 | – | –
CC(C)C(c1ccc(NC(=S)Nc2ccccc2)cc1)n1ccnc1 (racemic) [Compound 697] | 17.1 | 10.00 | – | –
CC(C)C(c1ccc(NC(=S)NC(=O)c2ccccc2)cc1)n1ccnc1 (racemic) [Compound 698, (±)-N-benzoyl-N′-[4-[1-(1H-imidazol-1-yl)-2-methylpropyl]phenyl]thiourea] | – | – | 39.6 | 20
CC(C)C(c1ccc(NC(=S)Nc2ccccc2F)cc1)n1ccnc1 (racemic) [Compound 700] | 12 | 5.00 | – | –
CCOc1ccc(NC(=O)Nc2ccc(C(C(C)C)n3ccnc3)cc2)cc1 (racemic) [Compound 707] | 13 | 5.00 | – | –
COc1ccc(NC(=O)Nc2ccc(C(C(C)C)n3ccnc3)cc2)cc1OC (racemic) [Compound 708] | 1.61 | >5.00 | – | –
O=C(Nc1ccc(C(c2cccc(C(F)(F)F)c2)n2ccnc2)cc1)Nc1cc(F)ccc1F (racemic) [Compound 709] | 2.4 | 5.00 | – | –
CCC(CC)C(c1ccc(NC(=O)Nc2cc(F)ccc2F)cc1)n1ccnc1 (racemic) [Compound 710] | 0.188 | 2.50 | – | –
O=C(Nc1ccc(C(c2cccc(C(F)(F)F)c2)n2cncn2)cc1)Nc1cccc(F)c1 (racemic) [Compound 711] | > 100 | 5.00 | – | –
CCC(CC)C(c1ccc(NC(=O)Nc2cc(F)ccc2F)cc1)n1cncn1 (racemic) [Compound 712] | 0.0043 | 5.00 | – | –
CCC(CC)C(c1ccc(NC(=O)Nc2ccccc2F)cc1)n1ccnc1 (racemic) [Compound 713] | 1.38 | 2.50 | – | –
CCC(CC)C(c1ccc(NC(=O)Nc2ccccc2F)cc1)n1cncn1 (racemic) [Compound 715] | 0.154 | >2.50 | – | –
CCC(CC)C(c1ccc(NC(=O)Nc2ccc(OC)c(OC)c2)cc1)n1cncn1 (racemic) [Compound 718] | 0.133 | 2.50 | – | –
COc1ccc(NC(=O)Nc2ccc(C(C(C)C)n3ccnc3)cc2)cc1 (racemic) [Compound 722] | 4.14 | 5.00 | – | –
CCC(CC)C(c1ccc(NC(=O)Nc2cccc(F)c2)cc1)n1cncn1 (racemic) [Compound 723] | 1.13 | 5.00 | – | –
CCC(CC)C(c1ccc(NC(=O)Nc2cccc(F)c2)cc1)n1ccnc1 (racemic) [Compound 724] | 1.18 | 2.50 | – | –
CC(C)C(c1ccc(NC(=O)Nc2cccc(F)c2)cc1)n1cncn1 (racemic) [Compound 725] | 3.29 | 5.00 | – | –
CC(C)C(c1ccc(NC(=O)Nc2ccccc2F)cc1)n1ccnc1 (racemic) [Compound 726] | 3.71 | 5.00 | – | –

— patent US7179825B2, “Retinoic acid mimetic anilides” (Janssen Pharmaceutica N.V., priority 1997, dated 2007)
